Experimental data from US20090227619A1, “Harmine derivatives, intermediates used in their preparations, preparation processes and use therefo” (priority 2003, published 2009).
Where two headings read alike, the source gives them in different places.

Columns and labels:
BGC-823 = test: In vitro cytotoxicity, IC50 by MTT method, BGC-823; format: cell-based
Summary of the method: (§1)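 Cells in RPMI1640 with 10% FBS at 37° C, 5% CO2 were seeded at 10^5/ml and exposed to a compound concentration gradient for 48 h, at least three replicates, solvent controls.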

NIH3T3 = test: In vitro cytotoxicity, IC50 by MTT method, NIH3T3; format: cell-based
Summary of the method: as §1

Hela = test: In vitro cytotoxicity, IC50 by MTT method, Hela; format: cell-based
Summary of the method: as §1

Lovo = test: In vitro cytotoxicity, IC50 by MTT method, Lovo; format: cell-based
Summary of the method: as §1

HepG2 = test: In vitro cytotoxicity, IC50 by MTT method, HepG2; format: cell-based, human
Summary of the method: as §1

PLA-801 = test: In vitro cytotoxicity, IC50 by MTT method, PLA-801; format: cell-based
Summary of the method: as §1

Kunming mice = conditions: summary Table 34, compounds marked *, results [153] of the previous tests; in mg/kg; cited from earlier work
CT-DNA [1] = test: DNA thermal denaturation, determination of ΔTm; format: binding; conditions: 20 uM compound, Tm of CT-DNA alone 61° C.
Summary of the method: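 CT-DNA at 15 ug/ml in PE buffer (1 mM Na2HPO4, 0.1 mM EDTA, pH 7.6), heated at 0.5° C./min from 25 to 95° C. Tm taken as hyperchromic transition mid-point; ΔTm = Tm of drug-DNA complex minus Tm of DNA alone, mean of three runs.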

Bel-7402 = test: In vitro cytotoxicity, IC50 by MTT method, Bel-7402; format: cell-based
Summary of the method: as §1

CT-DNA [2] = test: UV absorption spectrum method with CT-DNA; format: binding; conditions: CT-DNA 40 ug/ml, compound 20 uM, 37° C. for 2 h, OD at 260 nm
HepG2 cells = test: FCM analysis of apoptosis of HepG2 cells; format: cell-based, human; conditions: FIG. 6
[3] = Homo sapiens, BGC-823, BGC823, MTT, read-out: IC50
[4] = Mus musculus, NIH3T3, MTT, read-out: IC50
[5] = Homo sapiens, Hela, MTT, read-out: IC50
[6] = Homo sapiens, Lovo, MTT, read-out: IC50
[7] = Homo sapiens, HepG2, MTT, read-out: IC50
[8] = comparison table 43, in vivo, S180 sarcoma
[9] = comparison table 43, in vivo, Lewis lung cancer
[10] = Homo sapiens, Bel-7402, BeI7402, MTT, read-out: IC50
[11] = Homo sapiens, BGC-823, BGC823 cell strain, read-out: IC50 BGC823
[12] = Mus musculus, NIH3T3 cell strain, read-out: IC50 NIH3T3
[13] = Homo sapiens, Hela cell strain, read-out: IC50 Hela
[14] = Homo sapiens, Lovo cell strain, read-out: IC50 Lovo
[15] = Homo sapiens, HepG2 cell strain, read-out: IC50 HepG2
[16] = PLA-801 cell strain, read-out: IC50 PLA-801
[17] = Homo sapiens, Bel-7402, Bel7402 cell strain, read-out: IC50 Bel7402
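Throughout, for Anti-tumor activity compared with harmine (compound 1): mice implanted subcutaneously in the axilla with Lewis lung tumor cells, treated starting the following day, killed roughly three weeks after implantation.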
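Throughout, for Inhibition rate (%) Lewis cancer: mice implanted subcutaneously in the axilla with Lewis lung tumor cells, treated starting the following day, killed roughly three weeks after implantation.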

Excerpt for S180 sarcoma: There was one group of 8 to 10 mice C57BL/6 and Kunming mice for the anti-tumor tests and two groups of mice for negative control.
(3) Sources of tumors: Lewis lung cancer cells and S180 sarcoma in mice, which were sub-cultured and maintained by Pharmacological Center of Shanghai Pharmaceutical Industrial Research Institute.
All samples were weighed and added a small amount of Tween-80 to facilitate dissolution during the experiment, and then 0.5% CMC-Na solution was gradually added to achieve the desired concentration. The volume for experiment was 0.5 ml/20 g mouse.
The medicaments were intraperitoneally administered once a day continuously for 10 days.
For the negative control group, a vehicle of the same volume was intraperitoneally administered once a day continuously for 10 days. For the positive control group, CTX was administered in the dosage of 30 mg/kg once a day continuously for 7 days.
In vivo anti-tumor subcutaneous vaccination in the axilla was employed. Wildly grown tumor source was taken under sterile conditions to form a cell suspension of about 1×10^7 ml by homogenization method. For a corresponding mouse host, the suspension was injected in the axilla in an amount of 0.2 ml/mouse. The next day, the medicaments were administered according to the design of the tests. About three weeks later, all the groups of animals were executed. The tumors were taken from the animals and weighed. The inhibition rate of tumors was calculated according to the following formula:
T: average tumor weight of treated group; C: average tumor weight of negative control group.

Structure (SMILES): COc1ccc2c3ccnc(C)c3n(C)c2c1 [Compound 2, 7-methoxyl-1,9-dimethyl-β-carboline]
- IC50 (BGC-823; [3]): 50 µM
- IC50 (NIH3T3; [4]): 40 µM
- IC50 (Hela; [5]): 10 µM
- IC50 (Lovo; [6]): 40 µM
- IC50 (HepG2; [7]): 20 µM
- Inhibition rate (%) S180 sarcomata (S180 sarcoma; [8]): 32.1%
- IC50 (PLA-801; PLA-801, MTT, read-out: IC50): 30 µM
- Inhibition rate (%) Lewis cancer (Lewis lung cancer; [9]): 38.1%
- LD50 (Kunming mice): 28.92
- ΔTm (CT-DNA [1]; CT-DNA thermal denaturation): 5.3 °C
- IC50 (Bel-7402; [10]): 60 µM

Structure (SMILES): CCn1c2cc(OC)ccc2c2ccnc(C)c21 [Compound 3, 7-methoxyl-9-ethyl-1-methyl-β-carboline]
- IC50 (BGC-823; Homo sapiens, BGC-823): 50 µM
- IC50 (NIH3T3; Mus musculus, NIH3T3): 70 µM
- IC50 (Hela; Homo sapiens, HeLa): 20 µM
- IC50 (Lovo; Homo sapiens, LoVo): 170 µM
- IC50 (HepG2; Homo sapiens, HepG2): 10 µM
- Inhibition rate (%) S180 sarcomata (S180 sarcoma; mouse, in vivo): 37.6%
- IC50 (PLA-801): 20 µM
- Inhibition rate (%) Lewis cancer (Lewis lung cancer; mouse, in vivo): 42.0%
- LD50 (Kunming mice): 24.25
- ΔTm (CT-DNA [1]; CT-DNA thermal denaturation): 7.3 °C
- Influence on the UV absorption of DNA (CT-DNA [2]): reduce the UV absorption of DNA
- IC50 (Bel-7402; Homo sapiens, Bel-7402): 30 µM

Structure (SMILES): CCCCn1c2cc(OC)ccc2c2ccnc(C)c21 [Compound 4, 7-methoxyl-9-n-butyl-1-methyl-β-carboline]
- IC50 (BGC-823; [3]): 70 µM
- IC50 (NIH3T3; [4]): 40 µM
- IC50 (Hela; [5]): 30 µM
- IC50 (Lovo; [6]): 90 µM
- IC50 (HepG2; [7]): 60 µM
- Inhibition rate (%) S180 sarcomata (S180 sarcoma; [8]): 40.9%
- IC50 (PLA-801; PLA-801, MTT, read-out: IC50): 110 µM
- Inhibition rate (%) Lewis cancer (Lewis lung cancer; [9]): 44.0%
- LD50 (Kunming mice): 26.45
- ΔTm (CT-DNA [1]; CT-DNA thermal denaturation): 6.7 °C
- Influence on the UV absorption of DNA (CT-DNA [2]): reduce the UV absorption of DNA
- IC50 (Bel-7402; [10]): 60 µM

Structure (SMILES): COc1ccc2c3ccnc(C)c3n(Cc3ccccc3)c2c1 [Compound 6, 9-benzyl-7-methoxy-1-methyl-β-carboline]
- IC50 (BGC-823; [3]): 100 µM
- IC50 (NIH3T3; [4]): 50 µM
- IC50 (Hela; [5]): 270 µM
- IC50 (Lovo; [6]): 50 µM
- IC50 (HepG2; [7]): 90 µM
- Inhibition rate (%) S180 sarcomata (S180 sarcoma; [8]): 45.2%
- IC50 (PLA-801; PLA-801, MTT, read-out: IC50): 60 µM
- Inhibition rate (%) Lewis cancer (Lewis lung cancer; [9]): 46.9%
- LD50 (Kunming mice): 147.82
- ΔTm (CT-DNA [1]; CT-DNA 15 ug/ml, PE buffer pH 7.6): 10.3 °C
- ΔTm (CT-DNA [1]; CT-DNA thermal denaturation): 10.3 °C
- Influence on the UV absorption of DNA (CT-DNA [2]): reduce the UV absorption of DNA
- IC50 (Bel-7402; [10]): 60 µM

Structure (SMILES): COC(=O)c1cc2c3ccccc3n(C)c2cn1 [Compound 26, methyl 9-methyl-β-carboline-3-carboxylate]
- IC50 (BGC-823; [11]): 180 µM
- IC50 (NIH3T3; [12]): 90 µM
- IC50 (Hela; [13]): 180 µM
- IC50 (Lovo; [14]): 180 µM
- IC50 (HepG2; [15]): 120 µM
- Inhibition rate (%) S180 sarcomata (S180 sarcoma; [8]): 31.1%
- IC50 (PLA-801; [16]): 120 µM
- Inhibition rate (%) Lewis cancer (Lewis lung cancer; [9]): 35.0%
- LD50 (Kunming mice): 70.61
- IC50 (Bel-7402; [17]): 190 µM

Structure (SMILES): CCn1c2ccccc2c2cc(C(=O)OC)ncc21 [Compound 27, methyl 9-ethyl-β-carboline-3-carboxylate]
- IC50 (BGC-823; [11]): 250 µM
- IC50 (NIH3T3; [12]): 130 µM
- IC50 (Hela; [13]): 210 µM
- IC50 (Lovo; [14]): 110 µM
- IC50 (HepG2; [15]): 160 µM
- Inhibition rate (%) S180 sarcomata (S180 sarcoma; [8]): 29.0%
- IC50 (PLA-801; [16]): 290 µM
- Anti-tumor activity compared with harmine (compound 1) (Lewis lung cancer; Lewis lung cancer in mice, among 22 compounds tested): a little worse than or equivalent to that of harmines
- Inhibition rate (%) Lewis cancer (Lewis lung cancer; [9]): 30.5%
- LD50 (Kunming mice): 95.06
- IC50 (Bel-7402; [17]): 530 µM

Structure (SMILES): CCOC(=O)c1cc2c3ccccc3n(Cc3c(F)c(F)c(F)c(F)c3F)c2c(C)n1 [Compound 60, ethyl 9-(2′,3′,4′,5′,6′-pentafluoro)benzyl-1-methyl-β-carboline-3-carboxylate]
- IC50 (BGC-823; BGC823 cell strain, read-out: IC50 BGC823): 4 µM
- IC50 (NIH3T3; NIH3T3 cell strain, read-out: IC50 NIH3T3): 40 µM
- IC50 (Hela; Hela cell strain, read-out: IC50 Hela): 20 µM
- IC50 (Lovo; Lovo cell strain, read-out: IC50 Lovo): 40 µM
- IC50 (HepG2; HepG2 cell strain, read-out: IC50 HepG2): 30 µM
- IC50 (PLA-801; [16]): 50 µM
- IC50 (Bel-7402; Bel7402 cell strain, read-out: IC50 Bel7402): 100 µM
- Apoptosis of HepG2 cells (FCM analysis) (HepG2 cells): apoptosis of HepG2 cells induced
